In PubChem BioAssay (NCI):
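Dose response: 5 concentrations. Exposure: 48 h. Format: 96-well plates. Endpoint: linear interpolation; highest concentration if not reached. TGI denotes the concentration required for complete inhibition of growth.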

What was measured:
Assay in all cases: NCI tumour cell line growth inhibition, 48 h
[1] = tested on: A498 renal
[2] = tested on: ACHN renal
[3] = tested on: BT-549 breast
[4] = tested on: KM12 colon
[5] = tested on: LOX IMVI melanoma
[6] = tested on: NCI/ADR-RES ovarian
[7] = tested on: SF-295 CNS
[8] = tested on: UACC-62 melanoma

O=c1[nH]c2nccnc2c2c([N+](=O)[O-])cccc12
TGI [1]: > 100 µM | TGI [2]: > 100 µM | TGI [3]: > 100 µM | TGI [4]: > 100 µM | TGI [5]: > 100 µM | TGI [6]: > 100 µM | TGI [7]: > 100 µM | TGI [8]: > 100 µM

OC12C3C4CC5C(C4[C@@H]1Br)C2[C@@](O)(c1c(F)c(F)c(F)c(F)c1F)C53 (stereo partly drawn)
TGI [1]: > 100 µM | TGI [2]: > 100 µM | TGI [3]: > 100 µM | TGI [4]: 34.5 µM | TGI [5]: > 100 µM | TGI [6]: 85.9 µM | TGI [7]: 76.8 µM | TGI [8]: > 100 µM

c1ccc2c(c1)CCN(C1=NCCO1)C2
TGI [1]: > 10 µM | TGI [2]: > 10 µM | TGI [3]: > 10 µM | TGI [4]: > 10 µM | TGI [5]: > 10 µM | TGI [6]: > 10 µM | TGI [7]: > 10 µM | TGI [8]: > 10 µM

COC(=O)C1=COC(C)C2C[n+]3ccc4c([nH]c5ccccc54)c3CC12 (stereo not drawn)
TGI [1]: > 100 µM | TGI [2]: > 100 µM | TGI [3]: > 100 µM | TGI [4]: > 100 µM | TGI [5]: > 100 µM | TGI [6]: > 100 µM | TGI [7]: > 100 µM | TGI [8]: > 100 µM

Cc1cccc(/C=N/NC(=S)N2CCCCCC2)n1
TGI [1]: 13.5 µM | TGI [2]: 1.71 µM | TGI [3]: 14.4 µM | TGI [4]: > 44.7 µM | TGI [5]: 17 µM | TGI [6]: 0.202 µM | TGI [7]: 31.7 µM | TGI [8]: 1.08 µM

OCCN1CN(c2nc(N3CN(CCO)C3)nc(N3CN(CCO)C3)n2)C1
TGI [1]: 96.2 µM | TGI [2]: 95.3 µM | TGI [3]: 70.8 µM | TGI [4]: 47.9 µM | TGI [5]: 33.5 µM | TGI [6]: > 100 µM | TGI [8]: 28.8 µM

COC(=O)C1=C(O)C(C(=O)OC)[C@]2(O)[C@H](C(=O)OC)[C@H]1C[C@@H](c1cccc(OC)c1)[C@H]2C(=O)OC (stereo partly drawn)
TGI [1]: 55.9 µM | TGI [2]: 40.4 µM | TGI [3]: > 100 µM | TGI [4]: 69.8 µM | TGI [5]: > 100 µM | TGI [6]: > 100 µM | TGI [7]: > 100 µM | TGI [8]: 35.1 µM

O=S(=O)(O)c1ccc2c(N=Nc3ccccc3)c(O)c(S(=O)(=O)O)cc2c1
TGI [1]: > 100 µM | TGI [2]: > 100 µM | TGI [3]: > 100 µM | TGI [4]: > 100 µM | TGI [6]: > 100 µM | TGI [7]: > 100 µM | TGI [8]: > 100 µM

CC1(C)C2CCC1(C)C(N/C(=C(/C(Cl)=C(Cl)Cl)[N+](=O)[O-])n1nnc3ccccc31)C2 (stereo not drawn)
TGI [1]: 37.5 µM | TGI [2]: 42.1 µM | TGI [3]: 48.5 µM | TGI [4]: 87.9 µM | TGI [5]: > 100 µM | TGI [6]: 97.6 µM | TGI [7]: 52.3 µM | TGI [8]: 46 µM

COc1cc2c(cc1OC)C1=Cc3ccc(OC)c(OC)c3C(C#N)N1CC2 (stereo not drawn)
TGI [1]: > 100 µM | TGI [2]: > 100 µM | TGI [3]: 63.2 µM | TGI [4]: 58.7 µM | TGI [6]: > 100 µM | TGI [7]: > 100 µM | TGI [8]: 45.5 µM

O=C1C=C(N2CCCC2)C(=O)c2c(O)ccc(O)c21
TGI [1]: > 10 µM | TGI [2]: > 10 µM | TGI [3]: > 10 µM | TGI [4]: > 10 µM | TGI [5]: > 10 µM | TGI [7]: > 10 µM | TGI [8]: > 10 µM

Nc1nc2cc(CNc3ccc(C(=O)O)cc3)ccc2nc1-c1ccccc1
TGI [1]: > 100 µM | TGI [2]: > 100 µM | TGI [3]: > 100 µM | TGI [5]: > 100 µM | TGI [6]: > 100 µM | TGI [7]: > 100 µM

OCc1c2c(cc3c1CC1(C3)Cc3cc4c(c(CO)c3C1)CCC4)CCC2
TGI [1]: 30.3 µM | TGI [2]: 22.6 µM | TGI [4]: 31.2 µM | TGI [5]: 28.7 µM | TGI [6]: 37.8 µM | TGI [7]: 26.9 µM | TGI [8]: 32.6 µM

O=C1c2n[nH]nc2C(=O)c2n[nH]nc21
TGI [1]: > 100 µM | TGI [2]: > 100 µM | TGI [4]: > 100 µM | TGI [5]: > 100 µM | TGI [6]: > 100 µM | TGI [7]: > 100 µM | TGI [8]: > 100 µM

Cc1c(NC(=S)N/N=C\C(=N/NC(=S)Nc2c(C)n(C)n(-c3ccccc3)c2=O)c2ccccc2)c(=O)n(-c2ccccc2)n1C
TGI [1]: > 100 µM | TGI [2]: > 100 µM | TGI [3]: > 100 µM | TGI [4]: > 100 µM | TGI [6]: > 100 µM | TGI [7]: > 100 µM | TGI [8]: > 100 µM

O=c1c(/C=C/c2c(O)ccc3ccccc23)nnc2sc(-c3cccc([N+](=O)[O-])c3)nn12
TGI [2]: > 100 µM | TGI [3]: > 100 µM | TGI [4]: > 100 µM | TGI [5]: > 100 µM | TGI [6]: 67.8 µM | TGI [7]: 82.6 µM | TGI [8]: 43.9 µM

O=C1OC(C2Cc3ccccc3C2=O)c2ccccc21 (stereo not drawn)
TGI [2]: > 100 µM | TGI [3]: > 100 µM | TGI [4]: > 100 µM | TGI [5]: > 100 µM | TGI [6]: > 100 µM | TGI [7]: > 100 µM | TGI [8]: > 100 µM

CC(=O)N1CC(C)(C)c2c1cc(C)c(O)c2C
TGI [1]: > 100 µM | TGI [2]: > 100 µM | TGI [4]: > 100 µM | TGI [5]: > 100 µM | TGI [6]: > 100 µM | TGI [7]: > 100 µM | TGI [8]: > 100 µM

N#Cc1ccc(/C=N/NC(=O)CSCC(=O)N/N=C/c2ccc(C#N)cc2)cc1
TGI [1]: > 100 µM | TGI [2]: > 100 µM | TGI [4]: > 100 µM | TGI [6]: > 100 µM | TGI [7]: > 100 µM | TGI [8]: > 100 µM

O=c1[nH]c(=S)c2cc3c(=S)[nH]c(=O)n(CCC(c4ccccc4)(c4ccccc4)c4ccccc4)c3nc2n1CCC(c1ccccc1)(c1ccccc1)c1ccccc1
TGI [1]: > 100 µM | TGI [2]: > 100 µM | TGI [3]: > 100 µM | TGI [4]: > 100 µM | TGI [6]: > 100 µM | TGI [7]: > 100 µM | TGI [8]: > 100 µM

c1nncn1C12C3C4C5C3C1C5C42 (stereo not drawn)
TGI [1]: > 100 µM | TGI [2]: > 100 µM | TGI [3]: > 100 µM | TGI [4]: > 100 µM | TGI [5]: > 100 µM | TGI [6]: > 100 µM | TGI [7]: > 100 µM

CC(C)=NNc1cnnc2ccc([N+](=O)[O-])cc12
TGI [2]: > 100 µM | TGI [3]: > 100 µM | TGI [4]: > 100 µM | TGI [6]: > 100 µM | TGI [7]: > 100 µM

CCn1nc(-c2ccccc2)c2c1N(C)c1ccccc1-n1c(-c3ccccc3)nnc1-2
TGI [1]: 11.2 µM | TGI [2]: 26.8 µM | TGI [5]: 33 µM | TGI [6]: 40.3 µM | TGI [8]: 26.6 µM

CN1c2ccccc2C(=O)NC12CCN(Cc1ccccc1)CC2
TGI [1]: > 100 µM | TGI [2]: > 100 µM | TGI [4]: > 100 µM | TGI [5]: > 100 µM | TGI [6]: > 100 µM | TGI [7]: > 100 µM | TGI [8]: > 100 µM

COC(=O)c1c(O)ccc2c1c1c(n2Cc2ccc(OC)cc2)C(=O)c2ccccc2C1=O
TGI [1]: 47.2 µM | TGI [2]: 12.6 µM | TGI [3]: 3.06 µM | TGI [4]: 45.3 µM | TGI [5]: 23.2 µM | TGI [6]: 37.2 µM | TGI [7]: 39 µM

N#Cc1nc(C(F)(F)F)oc1N
TGI [1]: > 100 µM | TGI [2]: > 100 µM | TGI [4]: > 100 µM | TGI [5]: > 100 µM | TGI [6]: > 100 µM | TGI [7]: > 100 µM | TGI [8]: > 100 µM
